Patent publication US20100056623A1, “FUMAGILLOL DERIVATIVES OR METHOD FOR PREPARATION OF FUMAGILLOL DERIVATIVES, AND PHARMACEUTICAL COMPOSITIONS COMPRISING THE SAME” (CHONG KUN DANG PHARMACEUTICAL CORP., priority 2005, published 2010)
Like-named read-outs stand apart in the source and are kept apart here.

Tests used:
[1] = system: HUVEC (human umbilical vein endothelial cell); assay: Inhibiting activity on cell proliferation, SRB analysis (HUVEC); type: cell-based; conditions: HUVEC cells, 3 days with drug
Protocol: (§1) In order to compare the safety index (SI) of CPAE (calf pulmonary artery endothelial cell) with that of HUVEC (human umbilical vein endothelial cell), L5178Y lymphoma that was isolated from murine thymus was used. The safety index was defined as IC50 ratio of L5178Y against CPAE (IC50L5178Y/IC50CPAE). All cell lines, which had been kept in liquid nitrogen tank, were used after being thawed and subcultured 2˜3 times in T-flask. CPAE, HUVEC and L5178Y were cultured in MEM culture medium (20% FBS, 50˜100 μg/ml ECGS, 0.15% baking soda, 0.05 mg/ml gentamicin), M199 culture medium (20% FBS, 0.22% baking soda, 100 μg/ml heparin, 3 ng/ml bFGF, 0.05 mg/ml gentamicin) and RPMI 1640 culture medium (10% FBS, 0.2% baking soda, 0.05 mg/ml gentamicin), respectively, under the condition of 37° C. and 5% CO2.
(§2) The drug was prepared by being gradationally diluted to two or ten times by using PBS, 20 μl of the solution was added to each well of 96 well plate in triplicate. The cell, which is being incubated, was treated with trypsin to give cell suspension. The number of cell thereafter was counted. And 180 μl of the solution was inoculated to each well and cultured.
(§3) The cell was cultured with drugs for 3 days and then 50 μl of 50% TCA was added thereto (final concentration 10%). Subsequently the cell was fixed by being left alone at 4° C. for 1 hour. The well was washed 4 times by distilled water and then dried. After that 100 μl of SRB (Sulforhodamine B, Sigma Chemical Co.) solution (0.4% w/v in 1% acetic acid) was added thereto and then it was left alone at ordinary temperature for 30 minutes. Thereafter the well was washed 4 times by 1% acetic acid and dried. And then after adding 200 μl of 10 mM tris buffer, the absorbance at 570 nm was measured by automatic microplate reader (Model: Elx 808, Bio-Tek Instrument, INC). The viability was calculated from the ratio of the absorbance of the control to which drugs were not added and the well to which drugs were added.

L5178Y lymphoma = assay: Inhibiting activity on cell proliferation, MTT analysis (L5178Y); type: cell-based, murine; conditions: L5178Y lymphoma cells, 3 days with drug
Protocol: as §1, §2
The tumor cell was cultured with drugs for 3 days and then 50 μl of MTT (3-(4,5-dimethylthiazole-2-yl)-2,5-diphenyl tetrazolium bromide, Sigma Chemical Co.) solution (2.5 mg/ml in PBS) was added thereto. And it was further cultured for 4 hours at 37° C. Culture medium was removed carefully. And after dissolving formazan crystal by adding 150 μl of DMSO, the absorbance at 570 nm was determined.

[2] = system: CPAE (calf pulmonary artery endothelial cell); assay: Inhibiting activity on cell proliferation, SRB analysis (CPAE); type: cell-based; conditions: for IC50: CPAE cells, 3 days with drug, SRB, read-out: IC50 (nM) CAPE; for Selectivity Index (L5178Y/CAPE): IC50 L5178Y / IC50 CPAE
Protocol: as §1, §2, §3

[3] = Chemical stability test (HPLC purity); conditions: for 1 month Other peaks (%) / 1 month Parent peak (%) / Initial Other peaks (%) / Initial Parent peak (%): HPLC; for 1 month Other peaks (%) / 1 month Parent peak (%): air-tight vessel; for change of purity (%): initial vs 1 month at 40±2° C.
Protocol: Each compound of the present invention was kept in an air-tight vessel for 1 month at 40±2° C. and 75±5% of relative humidity. Thereafter the HPLC purity test was executed.
25 mL of the solution was precisely taken, and poured into 100 mL volumetric flask. Acetonitrile/20 mM ammonium acetate aqueous solution (50:50) was added thereto to be the total volume of 100 ml. The solution was filtrated, and the filtrate was used as a test liquid.
(2) Operational Condition of Instrument. • Column: Kromasil®C18 (UG 100 Å, 5 μm, 4.6 mm Φ×250 mm) • Column temperature: 30° C. • Mobil phase: 20 mM ammonium acetate (pH 4.2) buffer:acetonitrile (55:45) • Injection volume: 20 μL • Flow rate: 1.2 mL/min • Detector: UV light-absorption Spectrophotometer (detection wavelength: 306 nm)

Solubility test = type: physicochemical; conditions: ordinary temperature
Protocol: To a constant amount (400 mg) of each compounds of present invention, a constant amount of demineralized water, methanol and ethanol were added separately, and the solution was stirred at ordinary temperature.

[4] = Bos taurus, Endothelial cell, 72 h
[5] = 1 month at 40±2° C., 75±5% relative humidity

Structure (SMILES)	IC50 (L5178Y lymphoma; Mus musculus, 72 h) [nM]	1 month Other peaks (%) [3, 5] [%]	1 month Parent peak (%) [3, 5] [%]	Initial Other peaks (%) [3] [%]	Initial Parent peak (%) [3] [%]	change of purity (%) ([3]; 75±5% relative humidity)	The amount of solvent to dissolve 1 g of the compounds (ml), demineralized water (Solubility test) [mL]	The amount of solvent to dissolve 1 g of the compounds (ml), ethanol (Solubility test) [mL]	The amount of solvent to dissolve 1 g of the compounds (ml), methanol (Solubility test) [mL]	IC50 (L5178Y lymphoma) [nM]	change of purity (in words) [3, 5]	IC50 ([1]; Homo sapiens, 72 h) [nM]	IC50 [2, 4] [nM]	Selectivity Index (L5178Y/CAPE) [2]	chemical stability compared to known compounds [3, 5]	IC50 [1] [nM]	IC50 [2] [nM]
CO[C@@H]1[C@H](OC(=O)/C=C/c2ccc(OCCCCCO)c([N+](=O)[O-])c2)CC[C@]2(CO2)[C@H]1[C@@]1(C)O[C@@H]1CC=C(C)C [Example 24, O-(3-nitro-4-(5-hydroxypentoxy)cinnamoyl)fumagillol]	10400	–	–	–	–	–	–	–	–	–	–	0.0042	0.0946	1.10 × 10^5	–	–	–
CO[C@@H]1[C@H](OC(=O)/C=C/c2ccc(Oc3ccc(CO)cc3)cc2)CC[C@]2(CO2)[C@H]1[C@@]1(C)O[C@@H]1CC=C(C)C [Example 8, O-(4-(4-hydroxymethylphenoxy)cinnamoyl)fumagillol]	60200	–	–	–	–	–	–	–	–	–	–	0.00456	0.857	7.03 × 10^4	–	–	–
CO[C@@H]1[C@H](OC(=O)/C=C/c2ccc(OCCCCCO)cc2)CC[C@]2(CO2)[C@H]1[C@@]1(C)O[C@@H]1CC=C(C)C [Example 23, O-(4-(5-hydroxypentoxy)cinnamoyl)fumagillol]	9250	–	–	–	–	–	–	–	–	–	–	0.0057	0.0467	1.98 × 10^5	–	–	–
CO[C@@H]1[C@H](OC(=O)C=Cc2ccc(OCCN(C)C)cc2)CC[C@]2(CO2)[C@H]1[C@@]1(C)O[C@@H]1CC=C(C)C [CKD-732, O-(4-dimethylaminoethoxycinnamoyl)fumagillol, reference compound]	–	4.6	95.4	0.8	99.2	3.8	1100	219	197	8720	–	–	–	1.35 × 10^4	–	0.0066	0.648
COc1cc(/C=C/C(=O)O[C@@H]2CC[C@]3(CO3)[C@@H]([C@@]3(C)O[C@@H]3CC=C(C)C)[C@@H]2OC)cc(OC)c1Oc1ccc(CO)cc1 [Example 9, O-(3,5-dimethoxy-4-(4-hydroxymethylphenoxy)cinnamoyl)fumagillol]	61200	–	–	–	–	–	–	–	–	–	–	0.00361	0.811	7.54 × 10^4	–	–	–
CO[C@@H]1[C@H](OC(=O)NC(=O)CCl)CC[C@]2(CO2)[C@H]1[C@@]1(C)O[C@@H]1CC=C(C)C [TNP-470, O-chloroacetylcarbamoylfumagillol, reference compound]	4300	3.5	96.5	1.3	98.7	2.2	876	250	208	–	–	0.00896	0.449	3.85 × 10^3	–	–	–
CO[C@@H]1[C@H](OC(=O)/C=C/c2ccc(OCCCCCCO)cc2)CC[C@]2(CO2)[C@H]1[C@@]1(C)O[C@@H]1CC=C(C)C [Example 25, O-(4-(6-hydroxyhexyloxy)cinnamoyl)fumagillol]	21100	–	–	–	–	–	–	–	–	–	–	0.0015	0.124	1.70 × 10^5	–	–	–
COc1ccc(/C=C/C(=O)O[C@@H]2CC[C@]3(CO3)[C@@H]([C@@]3(C)O[C@@H]3CC=C(C)C)[C@@H]2OC)cc1Oc1ccc(CO)cc1 [Example 11, O-(3-(4-hydroxymethylphenoxy)-4-methoxycinnamoyl)fumagillol]	75000	–	–	–	–	–	–	–	–	–	–	0.0036	0.655	1.15 × 10^5	–	–	–
COc1ccc(/C=C/C(=O)O[C@@H]2CC[C@]3(CO3)[C@@H]([C@@]3(C)O[C@@H]3CC=C(C)C)[C@@H]2OC)cc1OCCO [Example 4, O-(3-(2-hydroxyethoxy)-4-methoxycinnamoyl)fumagillol]	27300	1.5	98.5	1.3	98.7	0.2	145	65	49	–	hardly showed a change of purity	0.00376	0.006	4.53 × 10^6	more excellent chemical stability than TNP-470, CKD-732 and CKD-731	–	–

Continued, in another order:

IC50 (L5178Y lymphoma; Mus musculus, 72 h) [nM]	1 month Other peaks (%) [3, 5] [%]	1 month Parent peak (%) [3, 5] [%]	Initial Other peaks (%) [3] [%]	Initial Parent peak (%) [3] [%]	change of purity (%) ([3]; 75±5% relative humidity)	The amount of solvent to dissolve 1 g of the compounds (ml), demineralized water (Solubility test) [mL]	The amount of solvent to dissolve 1 g of the compounds (ml), ethanol (Solubility test) [mL]	The amount of solvent to dissolve 1 g of the compounds (ml), methanol (Solubility test) [mL]	IC50 (L5178Y lymphoma) [nM]	change of purity (in words) [3, 5]	Structure (SMILES)	IC50 ([1]; Homo sapiens, 72 h) [nM]	IC50 [2, 4] [nM]	Selectivity Index (L5178Y/CAPE) [2]	chemical stability compared to known compounds [3, 5]	IC50 [1] [nM]	IC50 [2] [nM]
30700	–	–	–	–	–	–	–	–	–	–	CO[C@@H]1[C@H](OC(=O)/C=C/c2cccc(NCCOCCO)c2)CC[C@]2(CO2)[C@H]1[C@@]1(C)O[C@@H]1CC=C(C)C [Example 17, O-(3-(2-hydroxyethoxyethylamino)cinnamoyl)fumagillol]	0.00302	0.049	6.26 × 10^5	–	–	–
27700	1.9	98.1	1.4	98.6	0.5	130	58	31	–	–	CO[C@@H]1[C@H](OC(=O)/C=C/c2cccc(NCCO)c2)CC[C@]2(CO2)[C@H]1[C@@]1(C)O[C@@H]1CC=C(C)C [Example 6, O-(3-(2-hydroxyethylamino)cinnamoyl)fumagillol]	0.00222	0.0071	3.88 × 10^6	more excellent chemical stability than TNP-470, CKD-732 and CKD-731	–	–
7110	1.5	98.5	0.8	99.2	0.7	132	60	39	–	–	CO[C@@H]1[C@H](OC(=O)/C=C/c2ccc(NCCO)cc2)CC[C@]2(CO2)[C@H]1[C@@]1(C)O[C@@H]1CC=C(C)C [Example 5, O-(4-(2-hydroxyethylamino)cinnamoyl)fumagillol]	0.00104	0.0061	1.16 × 10^6	more excellent chemical stability than TNP-470, CKD-732 and CKD-731	–	–
9490	–	–	–	–	–	–	–	–	–	–	CO[C@@H]1[C@H](OC(=O)/C=C/c2ccc(NCCOCCO)cc2)CC[C@]2(CO2)[C@H]1[C@@]1(C)O[C@@H]1CC=C(C)C [Example 16, O-(4-(2-hydroxyethoxyethylamino)cinnamoyl)fumagillol]	0.0022	0.041	2.31 × 10^5	–	–	–
